ChEMBL document CHEMBL3351849, “Synthesis, biological activity and mechanistic insights of 1-substituted cyclopropylamine derivatives: a novel class of irreversible inhibitors of histone demethylase KDM1A” (Eur J Med Chem, 2014)
Active and inactive are the calls of the source. The calls are words filed in the database; no cut-off is given here.

How the values were obtained:
[1] = target: T1, Amine oxidase [flavin-containing] B (Homo sapiens, UniProt P27338)
T1 sequence (P27338 whole entry): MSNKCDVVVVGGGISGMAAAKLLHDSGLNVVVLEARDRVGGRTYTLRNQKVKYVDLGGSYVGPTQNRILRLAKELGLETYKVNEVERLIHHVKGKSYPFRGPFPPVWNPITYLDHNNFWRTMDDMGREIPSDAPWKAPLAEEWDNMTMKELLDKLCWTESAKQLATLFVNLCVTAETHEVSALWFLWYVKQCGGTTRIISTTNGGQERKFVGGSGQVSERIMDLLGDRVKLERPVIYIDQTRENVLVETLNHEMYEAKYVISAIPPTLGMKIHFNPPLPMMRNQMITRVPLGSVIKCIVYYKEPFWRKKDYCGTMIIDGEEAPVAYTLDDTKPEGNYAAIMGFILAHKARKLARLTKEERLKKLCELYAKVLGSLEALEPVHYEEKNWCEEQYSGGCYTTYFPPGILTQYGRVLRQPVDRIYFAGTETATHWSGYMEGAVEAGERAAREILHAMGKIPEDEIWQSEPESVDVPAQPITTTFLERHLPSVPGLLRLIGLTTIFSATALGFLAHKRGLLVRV

[2] = target: T2, Amine oxidase [flavin-containing] A (Homo sapiens, UniProt P21397)
T2 sequence (P21397 whole entry): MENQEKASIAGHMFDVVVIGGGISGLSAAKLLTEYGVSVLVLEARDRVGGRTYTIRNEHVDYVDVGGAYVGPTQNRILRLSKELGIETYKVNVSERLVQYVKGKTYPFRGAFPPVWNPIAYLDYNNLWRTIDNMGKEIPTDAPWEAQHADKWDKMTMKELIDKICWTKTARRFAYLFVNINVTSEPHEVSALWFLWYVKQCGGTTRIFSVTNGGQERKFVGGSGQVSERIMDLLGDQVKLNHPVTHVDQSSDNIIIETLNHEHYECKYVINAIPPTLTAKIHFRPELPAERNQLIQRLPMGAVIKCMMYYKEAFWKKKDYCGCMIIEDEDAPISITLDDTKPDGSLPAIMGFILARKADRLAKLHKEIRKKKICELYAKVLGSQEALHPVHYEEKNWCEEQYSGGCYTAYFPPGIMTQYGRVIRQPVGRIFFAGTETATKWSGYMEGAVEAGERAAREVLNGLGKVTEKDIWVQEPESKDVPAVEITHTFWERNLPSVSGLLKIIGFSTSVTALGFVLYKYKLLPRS

[3] = target: T3, Lysine-specific histone demethylase 1A (Homo sapiens, UniProt O60341); assay: Inhibition of human recombinant KDM1A/CoREST expressed in Escherichia coli assessed as reduction in H2O2 release at 22 uM using synthetic mono-methylated H3-K4 peptide (21 amino acids) substrate by horseradish peroxidase coupled enzyme assay
[4] = target: T3, Lysine-specific histone demethylase 1A; assay: Inhibition of human recombinant KDM1A/CoREST expressed in Escherichia coli assessed as reduction in H2O2 release at 100 uM using synthetic mono-methylated H3-K4 peptide (21 amino acids) substrate by horseradish peroxidase coupled enzyme assay
[5] = target: T3, Lysine-specific histone demethylase 1A
[6] = target: T3, Lysine-specific histone demethylase 1A; assay: Inhibition of KDM1A in human NB4 cells assessed as increase in Gfi-1b mRNA expression up to 100 uM incubated for 24 hrs by quantitative RT-PCR method; assay type: cell-based; details: NB-4
[7] = target: T3, Lysine-specific histone demethylase 1A; remark: listed apart in the source

IC50 [1] | IC50 [2] | Structure (SMILES) | other results
5550 nM | 235 nM | N[C@]1(c2ccccc2)C[C@H]1c1ccccc1 | 
28100 nM | 2590 nM | N[C@]1(Cc2ccccc2)C[C@H]1c1ccccc1 | 
11500 nM | 94 nM | N[C@@]1(c2ccccc2)C[C@@H]1c1ccccc1 | 
74300 nM | 8310 nM | N[C@@]1(Cc2ccccc2)C[C@@H]1c1ccccc1 | 
 |  | NCC(=O)c1ccccc1 | inhibition [3]: 30%
941 nM | 21.4 nM | N[C@]1(CCc2ccccc2)C[C@H]1c1ccccc1 (racemic) | 
600 nM | 527 nM | CCC[C@@]1(N)C[C@H]1c1ccccc1 (relative stereo) | 
10400 nM | 82.8 nM | N[C@@]1(c2ccccc2)C[C@H]1c1ccccc1 (relative stereo) | 
50500 nM | 3510 nM | N[C@]1(Cc2ccccc2)C[C@@H]1c1ccccc1 (relative stereo) | 
12700 nM | 1300 nM | N[C@]1(Cc2ccc3ccccc3c2)C[C@H]1c1ccccc1 (relative stereo) | 
 |  | CCOC(=O)[C@]1(N)C[C@H]1c1ccccc1 (relative stereo) | inhibition [4]: 11%; IC50 [5]: > 100000 nM
 |  | N[C@@]1(C(=O)O)C[C@H]1c1ccccc1 (relative stereo) | inhibition [4]: 21%; IC50 [5]: > 100000 nM
 |  | NC[C@@H]1C[C@H]1c1ccccc1 (relative stereo) | inhibition [4]: 0%
 |  | N[C@@H]1C[C@@H]1Oc1ccccc1 (relative stereo) | inhibition [4]: 0%
 |  | N[C@H]1C[C@@H]1Oc1ccccc1 (relative stereo) | inhibition [4]: 0%
 |  | C#CCN(C)CCCOc1ccc(Cl)cc1Cl [CLORGILINE] | inhibition [6]: inactive; IC50 [7]: Not Active

Structure (SMILES) | IC50 [1] | IC50 [2] | other results
CC[C@@]1(N)C[C@H]1c1ccccc1 | 33300 nM | 6800 nM | 
CC[C@]1(N)C[C@@H]1c1ccccc1 | 88 nM | 1430 nM | 
CC[C@@]1(N)C[C@@H]1c1ccccc1 (relative stereo) | 190 nM | 1920 nM | 
